The values below come from US9067894B1, “Compound, composition, and method of activating GIRK potassium channel and use of same for treating conditions of interest” (Vanderbilt University, priority 2013, dated 2015).

“Also recorded” adds a separate entry of the source. Bounds are passed on as bounds.

One experiment concerns the target T1, Leukotriene (Homo sapiens, UniProt Q9Y271).
T1 construct: Ricerca (contract laboratory that ran the panel)
The experiment can be described thus: Radioligand displacement (Ricerca). The experiment is classed as binding.

The next experiment deals with T2, Adenosine A2A (Homo sapiens, UniProt P29274).
T2 construct: Ricerca (contract assay)
The experiment can be described thus: Radioligand displacement (Ricerca). The experiment is classed as binding. A general note: In a radioligand displacement assay an active substance lowers the binding of a labelled ligand.

The next experiment has as its system GABAA (muscimol). The experiment in a line: Radioligand displacement (Ricerca). Type of experiment: binding, rat. Particulars: 10 μM.
Experiment [1] deals with Nicotinic acetylcholine. The experiment in a line: Radioligand displacement (Ricerca), first nicotinic entry. The conditions noted are these: 10 μM; first Nicotinic acetylcholine line. Type of experiment: binding, human.
Another experiment addresses T3, GABAB1A (Homo sapiens, UniProt Q9UBS5).
T3 construct: Ricerca
The experiment can be described thus: Radioligand displacement (Ricerca). The experiment is classed as binding.

Another experiment addresses T4, Serotonin 5-HT3 (Homo sapiens, UniProt P46098).
T4 construct: Ricerca (contract panel)
The experiment can be described thus: Radioligand displacement (Ricerca). The experiment is classed as binding.

The target of the next experiment is T5, Histamine H3 (Homo sapiens, UniProt Q9Y5N1).
T5 construct: Ricerca (contract laboratory that ran the panel)
The experiment in a line: Radioligand displacement (Ricerca). Type of experiment: binding.

The next experiment has as its target T6, GIRK2 (Homo sapiens, UniProt P48051).
T6 construct: expressed in transfected cells; host or cells: HEK-293
T6 sequence (P48051 1-423): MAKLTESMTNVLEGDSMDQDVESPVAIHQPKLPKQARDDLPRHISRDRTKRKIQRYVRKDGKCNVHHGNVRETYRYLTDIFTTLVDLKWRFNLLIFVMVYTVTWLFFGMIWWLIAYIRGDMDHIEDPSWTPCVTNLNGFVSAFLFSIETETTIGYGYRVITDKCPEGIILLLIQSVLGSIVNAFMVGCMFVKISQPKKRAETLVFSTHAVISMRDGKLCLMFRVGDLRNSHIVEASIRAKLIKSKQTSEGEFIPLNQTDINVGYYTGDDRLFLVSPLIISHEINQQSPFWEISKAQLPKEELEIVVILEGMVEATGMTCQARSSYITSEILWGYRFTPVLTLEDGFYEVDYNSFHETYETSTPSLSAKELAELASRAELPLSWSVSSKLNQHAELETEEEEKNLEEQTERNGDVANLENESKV
The experiment in a line: Thallium flux assay, HEK-293 cells expressing GIRK2 alone. The conditions noted are these: cell line GIRK2. The experiment is classed as cell-based. The text has this: Cell Line Construction and Cell Culture. HEK-293 cells co-expressing human GIRK1/2 and rat mGlu8 were generated as previously described (Niswender et al., 2008). A HEK-293 cell line (ATCC, Manassas, Va.) expressing human GIRK1 and human GIRK2 was constructed by transfecting HEK-293 cells with GIRK1 and GIRK2 (Origene, Rockville, Md.) cloned into the pBudCE4.1 vector (Life Technologies, Carlsbad, Calif.) using FuGene 6 (Promega, Madison, Wis.) transfection reagent. Unless otherwise noted, other ion channel-expressing cells were prepared by transfecting HEK-293 cells with individual or combinations of subunits: GIRK1, pCMV6-A-BSD; GIRK2, pCMV6-A-puro; GIRK3, pCMV6-A-hygro; GIRK4, pCMV6-A-AC; Kv7.4, pIRESneo3. The Kir2.1 and hERG-expressing cell lines were made by transfecting T-REx-293 cells (Life Technologies, Carlsbad, Calif.) with Kir2.1 and Kv11.1, respectively, cloned into pcDNA5TO. Monoclonal cell lines were produced by limiting-dilution cloning of antibiotic-resistant cells and functional selection using the thallium flux assay described below. Unless otherwise noted, cells were maintained in Minimal Essential Medium, Alpha Medium (Mediatech, Manassas, Va.) supplemented with 10% fetal bovine serum (Sigma-Aldrich, Saint Louis, Mo.) and GlutaGro (Mediatech, Manassas, Va.), referred to henceforth as cell culture medium. […]

The target in a further experiment is T7, Dopamine D2s (Homo sapiens, UniProt P14416).
T7 construct: Ricerca
The experiment in a line: Radioligand displacement (Ricerca). Type of experiment: binding.

A further experiment has as its target T8, Dopamine D1 (Homo sapiens, UniProt P21728).
T8 construct: Ricerca
The experiment can be described thus: Radioligand displacement (Ricerca). The experiment is classed as binding.

For a further experiment, the target named is T9, Histamine H2 (Homo sapiens, UniProt P25021).
T9 construct: Ricerca (contract laboratory that ran the panel)
The experiment in a line: Radioligand displacement (Ricerca). The experiment is classed as binding.

A further experiment concerns the target T10, Serotonin 5-HT2B (Homo sapiens, UniProt P41595).
T10 construct: Ricerca (contract panel)
The experiment in a line: Radioligand displacement (Ricerca). Type of experiment: binding.

Experiment [2] deals with Nicotinic acetylcholine. The experiment in a line: Radioligand displacement (Ricerca), second nicotinic entry. The experiment is classed as binding, human. Particulars: 10 μM; second Nicotinic acetylcholine line.
A further experiment deals with T11, Dopamine D4.2 (Homo sapiens, UniProt P21917, DEL265-296).
T11 construct: Ricerca
The experiment in a line: Radioligand displacement (Ricerca). The experiment is classed as binding.

T10 sequence (P41595 whole entry): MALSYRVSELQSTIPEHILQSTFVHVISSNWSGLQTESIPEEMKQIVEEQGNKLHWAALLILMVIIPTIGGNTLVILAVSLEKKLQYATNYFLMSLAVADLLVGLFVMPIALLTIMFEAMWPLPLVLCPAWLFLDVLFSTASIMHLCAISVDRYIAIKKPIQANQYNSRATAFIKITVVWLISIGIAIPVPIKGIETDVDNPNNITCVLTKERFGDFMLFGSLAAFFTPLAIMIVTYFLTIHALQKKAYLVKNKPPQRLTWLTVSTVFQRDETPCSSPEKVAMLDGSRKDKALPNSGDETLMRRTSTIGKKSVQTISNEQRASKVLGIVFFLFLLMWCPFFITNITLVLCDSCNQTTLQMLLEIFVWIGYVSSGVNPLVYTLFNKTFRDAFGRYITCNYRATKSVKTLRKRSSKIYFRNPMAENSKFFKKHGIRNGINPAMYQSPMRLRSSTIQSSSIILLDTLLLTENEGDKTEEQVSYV
T9 sequence (P25021 whole entry): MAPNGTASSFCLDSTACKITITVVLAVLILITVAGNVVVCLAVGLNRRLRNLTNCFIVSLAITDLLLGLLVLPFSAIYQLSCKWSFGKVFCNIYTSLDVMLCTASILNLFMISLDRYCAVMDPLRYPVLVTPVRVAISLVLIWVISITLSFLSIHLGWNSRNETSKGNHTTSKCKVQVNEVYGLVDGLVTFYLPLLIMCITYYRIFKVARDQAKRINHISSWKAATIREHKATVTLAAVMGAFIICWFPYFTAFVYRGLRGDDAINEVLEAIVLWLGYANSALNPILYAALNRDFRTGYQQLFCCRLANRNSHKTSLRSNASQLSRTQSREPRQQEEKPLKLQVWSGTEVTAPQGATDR
T4 sequence (P46098 24-478): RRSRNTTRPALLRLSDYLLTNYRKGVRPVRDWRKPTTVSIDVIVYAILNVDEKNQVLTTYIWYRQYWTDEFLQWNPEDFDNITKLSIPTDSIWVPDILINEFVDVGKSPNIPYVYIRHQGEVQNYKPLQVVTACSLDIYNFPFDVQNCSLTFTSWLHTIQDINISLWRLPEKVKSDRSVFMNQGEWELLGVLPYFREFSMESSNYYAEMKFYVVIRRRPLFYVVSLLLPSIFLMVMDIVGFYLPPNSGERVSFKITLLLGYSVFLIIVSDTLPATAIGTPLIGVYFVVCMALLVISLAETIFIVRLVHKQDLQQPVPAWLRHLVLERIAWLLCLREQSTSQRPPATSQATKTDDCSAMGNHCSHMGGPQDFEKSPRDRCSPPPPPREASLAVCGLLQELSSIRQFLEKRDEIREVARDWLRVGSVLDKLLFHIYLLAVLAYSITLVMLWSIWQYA
T1 sequence (Q9Y271 whole entry): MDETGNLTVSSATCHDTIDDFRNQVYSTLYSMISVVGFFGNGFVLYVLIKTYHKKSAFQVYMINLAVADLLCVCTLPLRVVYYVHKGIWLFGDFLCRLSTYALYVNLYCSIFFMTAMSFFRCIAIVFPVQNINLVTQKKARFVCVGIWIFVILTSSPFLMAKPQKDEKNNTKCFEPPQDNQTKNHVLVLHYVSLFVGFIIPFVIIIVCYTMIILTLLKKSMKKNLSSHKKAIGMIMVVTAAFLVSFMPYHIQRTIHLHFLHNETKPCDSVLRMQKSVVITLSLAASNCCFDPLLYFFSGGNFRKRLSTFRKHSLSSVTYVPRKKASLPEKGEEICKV
T5 sequence (Q9Y5N1 whole entry): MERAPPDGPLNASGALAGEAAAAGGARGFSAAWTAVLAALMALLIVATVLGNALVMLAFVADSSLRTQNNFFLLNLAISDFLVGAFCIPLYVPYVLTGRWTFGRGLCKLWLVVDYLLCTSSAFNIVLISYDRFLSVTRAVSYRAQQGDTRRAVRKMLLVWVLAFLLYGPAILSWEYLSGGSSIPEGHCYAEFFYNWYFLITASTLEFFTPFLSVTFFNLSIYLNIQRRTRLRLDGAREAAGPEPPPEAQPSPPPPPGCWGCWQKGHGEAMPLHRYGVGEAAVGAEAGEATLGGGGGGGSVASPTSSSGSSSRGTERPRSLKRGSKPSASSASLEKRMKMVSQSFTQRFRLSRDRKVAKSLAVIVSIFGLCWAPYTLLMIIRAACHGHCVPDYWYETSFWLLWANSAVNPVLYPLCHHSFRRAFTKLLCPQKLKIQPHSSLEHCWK
T7 sequence (P14416 1-414 isoform P14416-2): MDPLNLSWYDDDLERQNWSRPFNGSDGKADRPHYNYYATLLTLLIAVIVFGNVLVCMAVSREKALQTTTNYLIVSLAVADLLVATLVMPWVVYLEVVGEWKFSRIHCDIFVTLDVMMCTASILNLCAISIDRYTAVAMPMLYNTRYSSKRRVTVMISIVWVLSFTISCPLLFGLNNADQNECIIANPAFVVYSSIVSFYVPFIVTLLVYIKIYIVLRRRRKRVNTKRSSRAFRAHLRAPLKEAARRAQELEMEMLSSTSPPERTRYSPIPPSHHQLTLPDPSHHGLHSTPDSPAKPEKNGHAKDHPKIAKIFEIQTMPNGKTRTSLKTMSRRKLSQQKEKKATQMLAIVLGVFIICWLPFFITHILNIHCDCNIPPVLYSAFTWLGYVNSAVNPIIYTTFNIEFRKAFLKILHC
T8 sequence (P21728 whole entry): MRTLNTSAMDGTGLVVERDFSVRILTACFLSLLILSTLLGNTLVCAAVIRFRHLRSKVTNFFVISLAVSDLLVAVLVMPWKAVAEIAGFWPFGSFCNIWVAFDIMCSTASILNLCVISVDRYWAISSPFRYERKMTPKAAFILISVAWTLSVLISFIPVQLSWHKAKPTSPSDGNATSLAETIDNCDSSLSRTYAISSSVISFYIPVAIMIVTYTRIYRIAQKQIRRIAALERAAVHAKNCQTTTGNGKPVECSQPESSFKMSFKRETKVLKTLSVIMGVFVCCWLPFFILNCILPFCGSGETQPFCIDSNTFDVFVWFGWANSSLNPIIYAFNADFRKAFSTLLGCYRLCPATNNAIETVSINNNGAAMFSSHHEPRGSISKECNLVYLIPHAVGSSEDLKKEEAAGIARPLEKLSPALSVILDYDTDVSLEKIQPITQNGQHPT
T11 sequence (P21917 with tags, fused parts or gaps DEL265-296): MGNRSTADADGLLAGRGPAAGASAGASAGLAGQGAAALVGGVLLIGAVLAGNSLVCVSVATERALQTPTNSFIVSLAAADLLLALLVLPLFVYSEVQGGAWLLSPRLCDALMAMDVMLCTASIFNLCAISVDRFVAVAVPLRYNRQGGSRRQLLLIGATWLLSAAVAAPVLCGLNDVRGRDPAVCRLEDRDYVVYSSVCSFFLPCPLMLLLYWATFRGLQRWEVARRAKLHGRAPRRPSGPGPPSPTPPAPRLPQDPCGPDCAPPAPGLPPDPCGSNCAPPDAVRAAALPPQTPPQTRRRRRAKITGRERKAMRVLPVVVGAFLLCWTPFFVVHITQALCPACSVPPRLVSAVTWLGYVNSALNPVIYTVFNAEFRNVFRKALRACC
T2 sequence (P29274 whole entry): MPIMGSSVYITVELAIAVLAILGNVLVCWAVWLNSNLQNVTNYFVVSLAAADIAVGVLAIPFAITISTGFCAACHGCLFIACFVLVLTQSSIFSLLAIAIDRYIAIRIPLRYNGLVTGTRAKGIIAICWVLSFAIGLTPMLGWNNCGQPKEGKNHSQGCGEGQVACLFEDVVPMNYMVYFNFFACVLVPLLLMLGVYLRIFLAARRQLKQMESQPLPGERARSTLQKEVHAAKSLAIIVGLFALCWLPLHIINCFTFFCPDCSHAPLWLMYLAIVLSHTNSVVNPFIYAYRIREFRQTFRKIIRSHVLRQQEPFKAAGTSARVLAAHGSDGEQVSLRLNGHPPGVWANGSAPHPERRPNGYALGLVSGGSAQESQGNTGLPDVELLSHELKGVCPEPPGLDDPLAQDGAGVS
T3 sequence (Q9UBS5 15-961 limits assumed): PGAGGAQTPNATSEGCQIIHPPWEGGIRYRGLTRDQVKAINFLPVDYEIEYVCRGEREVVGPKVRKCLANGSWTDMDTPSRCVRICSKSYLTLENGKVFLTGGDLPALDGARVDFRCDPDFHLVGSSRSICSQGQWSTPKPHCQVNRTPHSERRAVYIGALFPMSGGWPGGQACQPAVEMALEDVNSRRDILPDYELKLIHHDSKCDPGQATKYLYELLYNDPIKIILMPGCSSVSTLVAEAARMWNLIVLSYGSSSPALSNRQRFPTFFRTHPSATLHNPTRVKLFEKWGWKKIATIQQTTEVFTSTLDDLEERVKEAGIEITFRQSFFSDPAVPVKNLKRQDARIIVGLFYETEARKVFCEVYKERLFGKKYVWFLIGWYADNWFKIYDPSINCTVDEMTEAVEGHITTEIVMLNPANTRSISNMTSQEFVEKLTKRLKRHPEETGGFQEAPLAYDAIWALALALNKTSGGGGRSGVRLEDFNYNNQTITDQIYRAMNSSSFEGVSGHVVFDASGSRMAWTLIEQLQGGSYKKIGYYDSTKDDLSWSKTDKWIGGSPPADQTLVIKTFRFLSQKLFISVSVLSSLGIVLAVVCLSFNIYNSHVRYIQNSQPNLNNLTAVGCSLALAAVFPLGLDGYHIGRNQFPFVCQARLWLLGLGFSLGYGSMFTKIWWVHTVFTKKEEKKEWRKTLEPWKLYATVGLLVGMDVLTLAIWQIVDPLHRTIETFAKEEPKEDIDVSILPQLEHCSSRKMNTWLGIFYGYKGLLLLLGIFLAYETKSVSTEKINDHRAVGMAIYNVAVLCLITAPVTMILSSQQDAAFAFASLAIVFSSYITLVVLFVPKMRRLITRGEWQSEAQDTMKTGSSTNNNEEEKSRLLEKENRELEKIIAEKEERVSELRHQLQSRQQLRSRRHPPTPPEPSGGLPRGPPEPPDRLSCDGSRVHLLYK

In general, inhibition refers to the relative decrease from the control value, in per cent. The % Inhibition is the drop in the measured response relative to a control, in per cent. Consider `Cc1cc(NC(=O)Nc2ccc(F)c(F)c2)n(-c2ccccc2)n1` [VU0456810, 1-(3,4-difluorophenyl)-3-(3-methyl-1-phenyl-1H-pyrazol-5-yl)urea], for which the inhibition at 10 µM on Leukotriene turned out to be 4%; on Adenosine A2A it was 12%; at GABAB1A, 11%; at Serotonin 5-HT3, 1%; at Histamine H3, 1%; on Dopamine D2s, 16%. Also, the inhibition at 10 µM is -5% at Dopamine D1, -2% on Histamine H2, less than 50% on Serotonin 5-HT2B and 4% at Dopamine D4.2. The “% Inhibition” value in the experiment on GABAA (muscimol) was 49%; in the experiment on Nicotinic acetylcholine [1] it was 0%; at Serotonin 5-HT2B (10 μM) it was 46%; in the experiment on Nicotinic acetylcholine [2], 7%. Also, the “EC50 Thallium Flux” value was “complete inability to modulate; also recorded: Inactive” on GIRK2 and “inactive” at GIRK2 (listed as 2).
